One experiment deals with T1, cIAP-1 BIR-3 (Homo sapiens, UniProt Q13490).
T1 construct: 40 nM of the respective IAP BIR3
Briefly: Fluorescence polarization binding to cIAP-1 BIR-3 with labeled peptide AbuRPF-K(5-Fam)-NH2. The settings on record: cIAP-1 BIR-3, 40 nM BIR3, 5 nM labeled peptide, 15 min RT, pH 7.5; read-out: cIAP1, nM (binding affinity KD, as range). Here is the method: (§1) The binding affinities of the compounds are reported as a KD value (μM). Briefly, various concentrations of test peptides were mixed with 5 nM of the fluorescently labeled peptide (i.e., a mutated N-terminal Smac peptide-AbuRPF-K(5-Fam)-NH2) and 40 nM of the respective IAP BIR3 for 15 min at RT in […] of 0.1M Potassium Phosphate buffer, pH 7.5 containing […] bovine g-globulin. Following incubation, the polarization values (mP) were measured on a Victor2V™ (available from PerkinElmer® Life Sciences) using a 485 nm excitation filter and a 520 nm emission filter. The reported binding affinities (KD values) are supplied as ranges (A=<0.1 μM, B=0.1 μM to 1 μM, C=>1 μM to 10 μM, D=>10 μM).
(In general: In fluorescence polarisation assays a small probe gives low polarisation when free and higher when bound to something large.)

The next experiment has as its system SK-OV-3 cells. Put plainly: MTT cell growth inhibition assay in ovarian cancer cell line SK-OV-3. It counts as cell-based. The settings on record: Homo sapiens, 72 hrs incubation, read-out: SKOV3, nM (CC50, concentration giving 50% cell survival, as range). Here is the method:
Compounds of the invention also were tested for their ability to inhibit the growth of an ovarian cancer cell line, SK-OV-3. A known assay previously used for measuring cell growth (as described in Hansen, M. B., Nielsen, S. E., and Berg, K. (1989) J. Immunol. Methods 119, 203-210 and incorporated herein by reference in its entirety) was used. Briefly, SK-OV-3 cells are seeded in 96-well plates in McCoy's medium containing 10% fetal bovine serum albumin (5,000 per well) and incubated overnight at 37° C. The next day, test compounds are added at various concentrations (0.003-10 μM) and the plates are incubated at 37° C. for an additional 72 hrs. This incubation time was considered to be optimal for measuring inhibitory effects of the different compounds tested. 50 microliters of 5 mg/mL MTT reagent is added to each well and the plates are incubated at 37° C. for another three (3) hours. At the end of the three (3) hour incubation period, 50 microliters of DMSO is added to each well to dissolve cells and the optical density (OD) of the wells is measured with a microplate reader (Victor^2 1420™, Wallac, Finland) at 535 nm. Cell survival (CS) was calculated using the following equation: CS=(OD treated well/mean OD control wells)×100%.
The CC50 (reported in the following tables), is defined as the drug concentration that results in 50% cell survival (CS), and is derived by calculating the point where the dose-response curve crosses the 50% CS point using GraphPad Prism® graphing software. The reported CC50 values are supplied as ranges (A=<0.1 μM, B=0.1 μM to 1 μM, C=>1 μM to 10 μM, D=>10 μM).

The target of a further experiment is T2, XIAP BIR-3 (Homo sapiens, UniProt P98170).
T2 construct: 40 nM of the respective IAP BIR3
Put plainly: Fluorescence polarization binding to XIAP BIR-3 with labeled peptide AbuRPF-K(5-Fam)-NH2. The conditions noted are these: XIAP BIR-3, 40 nM BIR3, 5 nM labeled peptide, 15 min RT, pH 7.5; read-out: XIAP, nM (binding affinity KD, as range). Here is the method: as §1

Among the data in US8481495B2 (TetraLogic Pharmaceuticals Corporation, priority 2009, dated 2013) are Kd and CC50 values, retold here.

Where only a bound is given, the exact number is not on record here.

T1 sequence (Q13490 253-363 limits assumed): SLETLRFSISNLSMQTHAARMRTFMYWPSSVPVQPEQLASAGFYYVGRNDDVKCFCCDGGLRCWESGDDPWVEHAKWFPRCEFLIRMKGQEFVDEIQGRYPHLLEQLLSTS
T2 sequence (P98170 241-356 limits assumed): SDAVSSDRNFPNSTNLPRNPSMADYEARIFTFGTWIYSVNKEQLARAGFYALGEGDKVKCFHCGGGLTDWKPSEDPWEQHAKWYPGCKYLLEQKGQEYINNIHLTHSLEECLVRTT

Consider `CN[C@@H](C)C(=O)N[C@H](C(=O)N1CC[C@@H]2[C@H]1[C@@H](C(=O)N[C@H]1CCCc3ccccc31)CN2S(C)(=O)=O)C(C)(C)C` [Example 23, 4-[3,3-Dimethyl-2-(2-methylamino-propionylamino)-butyryl]-1-methanesulfonyl-octahydro-pyrrolo[3,2-b]pyrrole-3-carboxylic acid (1,2,3,4-tetrahydro-naphthalen-1-yl)-amide], for which the Kd on cIAP-1 BIR-3 and on XIAP BIR-3 was < 100 nM throughout. In the experiment on SK-OV-3 cells, the CC50 was in the range of 100 to 1000 nM.
As for `CN[C@@H](C)C(=O)N[C@H](C(=O)N1CC[C@@H]2[C@H]1[C@@H](C(=O)Nc1ccc3ccccc3c1)CN2S(C)(=O)=O)C1CCCCC1` [Example 18, 4-[2-Cyclohexyl-2-(2-methylamino-propionylamino)-acetyl]-1-methanesulfonyl-octahydro-pyrrolo[3,2-b]pyrrole-3-carboxylic acid naphthalen-2-ylamide], the values for the Kd at cIAP-1 BIR-3 and at XIAP BIR-3 were < 100 nM and 100 to 1000 nM, respectively. Moreover, the CC50 in the experiment on SK-OV-3 cells is < 100 nM.
Turning to `CN[C@@H](C)C(=O)N[C@H](C(=O)N1CC[C@@H]2[C@H]1[C@@H](C(=O)Nc1cccc3ccncc13)CN2S(C)(=O)=O)C(C)(C)C` [Example 45, 4-[3,3-Dimethyl-2-(2-methylamino-propionylamino)-butyryl]-1-methanesulfonyl-octahydro-pyrrolo[3,2-b]pyrrole-3-carboxylic acid isoquinolin-8-ylamide], the figures for the equilibrium dissociation constant (Kd) on cIAP-1 BIR-3 and on XIAP BIR-3 were < 100 nM and 100 to 1000 nM, respectively. Besides, the CC50 in the experiment on SK-OV-3 cells fell in the range of 100 to 1000 nM.
As to `CNC(=O)N1C[C@H](C(=O)N[C@@H]2CCCc3ccccc32)[C@@H]2[C@H]1CCN2C(=O)[C@@H](NC(=O)[C@H](C)NC)C(C)(C)C` [Example 40, 4-[3,3-Dimethyl-2-(2-methylamino-propionylamino)-butyryl]-hexahydro-pyrrolo[3,2-b]pyrrole-1,3-dicarboxylic acid 1-methylamide 3-[(1,2,3,4-tetrahydro-naphthalen-1-yl)-amide]], the Kd at cIAP-1 BIR-3 and at XIAP BIR-3 was < 100 nM each time. Also, the CC50 in the experiment on SK-OV-3 cells was < 100 nM.
With `CN[C@@H](C)C(=O)N[C@H](C(=O)N1CC[C@@H]2[C@H]1[C@@H](C(=O)N[C@@H]1CCCc3ccccc31)CN2C(=O)OC)C1CCCCC1` [Example 39, 4-[2-Cyclohexyl-2-(2-methylamino-propionylamino)-acetyl]-3-(1,2,3,4-tetrahydro-naphthalen-1-ylcarbamoyl)-hexahydro-pyrrolo[3,2-b]pyrrole-1-carboxylic acid methyl ester], the Kd on cIAP-1 BIR-3 and at XIAP BIR-3 was < 100 nM in each case. For the same compound, the CC50 in the experiment with SK-OV-3 cells was < 100 nM.
Regarding `CN[C@@H](C)C(=O)N[C@H](C(=O)N1CC[C@@H]2[C@H]1[C@@H](C(=O)Nc1cnc3ccccc3c1)CN2S(C)(=O)=O)C(C)(C)C` [Example 51, 4-[3,3-Dimethyl-2-(2-methylamino-propionylamino)-butyryl]-1-methanesulfonyl-octahydro-pyrrolo[3,2-b]pyrrole-3-carboxylic acid quinolin-3-ylamide], the Kd (commonly the constant that tells how readily two partners part at equilibrium) on cIAP-1 BIR-3 is < 100 nM; at XIAP BIR-3 it was 100 to 1000 nM. Moreover, the CC50 with SK-OV-3 cells was < 100 nM.
For `CN[C@@H](C)C(=O)N[C@H](C(=O)N1CC[C@@H]2[C@H]1[C@@H](C(=O)N[C@@H]1CCCc3ccccc31)CN2C(C)=O)C1CCCCC1` [Example 36, 1-Acetyl-4-[2-cyclohexyl-2-(2-methylamino-propionylamino)-acetyl]-octahydro-pyrrolo[3,2-b]pyrrole-3-carboxylic acid (1,2,3,4-tetrahydro-naphthalen-1-yl)-amide], the Kd at cIAP-1 BIR-3 and at XIAP BIR-3 was < 100 nM throughout. For the same compound, the CC50 in the experiment on SK-OV-3 cells is < 100 nM.
